# According to ChEMBL document CHEMBL3885861, “Open TG-GATES”:
# Species on record: Rattus norvegicus
# Assay: Open TG-GATES - Regimen: Daily Repeat
# Format: toxicity, organism-based, Sprague-Dawley
# Set-up: regimen Daily Repeat, gender Male, age 6 weeks
# Details: in vivo, po, 100 mg/kg, route gavage, dose level Low; for APTT / Bas / Eos / Fbg / Hb / Ht / Lym / MCH / MCHC / MCV / Mono / Neu / PT / Plat / RBC / Ret / WBC: tissue Blood; for KIDNEY_L / KIDNEY_R / KIDNEY_TOTAL: tissue Kidney; for LIVER: tissue Liver; for A/G / ALP / ALT / AST / BUN / CRE / Ca / Cl / DBIL / GLC / IP / K / LDH / Na / PL / RALB / TBIL / TC / TG / TP / gamma-GTP: tissue Plasma
smiles,measurement,setting,value
CCCCNC(=O)NS(=O)(=O)c1ccc(C)cc1 [TOLBUTAMIDE],TERMINAL_BW,"72 h, time 3 day",233.9 g
same,APTT,"72 h, time 3 day",20.4 s
same,Bas,"72 h, time 3 day",0.2%
same,Eos,"72 h, time 3 day",1.2%
same,Fbg,"72 h, time 3 day",283.2 mg/dL
same,Hb,"72 h, time 3 day",13.7 g/dL
same,Ht,"72 h, time 3 day",42%
same,Lym,"72 h, time 3 day",80.2%
same,MCH,"72 h, time 3 day",20.2 pg
same,MCHC,"72 h, time 3 day",32.7%
same,MCV,"72 h, time 3 day",61.9 fL
same,Mono,"72 h, time 3 day",2.2%
same,Neu,"72 h, time 3 day",15.8%
same,PT,"72 h, time 3 day",13.2 s
same,Plat,"72 h, time 3 day",118.8 x10_4/uL
same,RBC,"72 h, time 3 day",680.4 x10_4/ul
same,Ret,"72 h, time 3 day",5.8%
same,WBC,"72 h, time 3 day",98.1 x10_2/uL
same,KIDNEY_L,"72 h, time 3 day",1 g
same,KIDNEY_R,"72 h, time 3 day",1 g
same,KIDNEY_TOTAL,"72 h, time 3 day",2 g
same,LIVER,"72 h, time 3 day",11.3 g
same,A/G,"72 h, time 3 day",0.9
same,ALP,"72 h, time 3 day",1905.6 IU/L
same,ALT,"72 h, time 3 day",46.2 IU/L
same,AST,"72 h, time 3 day",73.8 IU/L
same,BUN,"72 h, time 3 day",15 mg/dL
same,CRE,"72 h, time 3 day",0.2 mg/dL
same,Ca,"72 h, time 3 day",11.1 mg/dL
same,Cl,"72 h, time 3 day",104.6 meq/L
same,DBIL,"72 h, time 3 day",0.01 mg/dL
same,GLC,"72 h, time 3 day",180.4 mg/dL
same,IP,"72 h, time 3 day",8.4 mg/dL
same,K,"72 h, time 3 day",3.9 meq/L
same,LDH,"72 h, time 3 day",68.8 IU/L
same,Na,"72 h, time 3 day",142.6 meq/L
same,PL,"72 h, time 3 day",156.4 mg/dL
same,RALB,"72 h, time 3 day",2.6 g/dL
same,TBIL,"72 h, time 3 day",0.058 mg/dL
same,TC,"72 h, time 3 day",77 mg/dL
same,TG,"72 h, time 3 day",99.4 mg/dL
same,TP,"72 h, time 3 day",5.5 g/dL
same,gamma-GTP,"72 h, time 3 day",1 IU/L
same,TERMINAL_BW,"[…], time 7 day",273.5 g
same,TERMINAL_BW,"[…], time 14 day",313.3 g
same,TERMINAL_BW,"[…], time 28 day",400.3 g
same,APTT,"[…], time 7 day",16.9 s
same,Bas,"[…], time 7 day",0%
same,Eos,"[…], time 7 day",1%
same,Fbg,"[…], time 7 day",303.2 mg/dL
same,Hb,"[…], time 7 day",13.6 g/dL
same,Ht,"[…], time 7 day",40.9%
same,Lym,"[…], time 7 day",74.4%
same,MCH,"[…], time 7 day",20.4 pg
same,MCHC,"[…], time 7 day",33.2%
same,MCV,"[…], time 7 day",61.4 fL
same,Mono,"[…], time 7 day",2%
same,Neu,"[…], time 7 day",21.8%
same,PT,"[…], time 7 day",12.5 s
same,Plat,"[…], time 7 day",130 x10_4/uL
same,RBC,"[…], time 7 day",667 x10_4/ul
same,Ret,"[…], time 7 day",5.4%
same,WBC,"[…], time 7 day",123.8 x10_2/uL
same,APTT,"[…], time 14 day",18.6 s
same,Bas,"[…], time 14 day",0.2%
same,Eos,"[…], time 14 day",0.8%
same,Fbg,"[…], time 14 day",284.2 mg/dL
same,Hb,"[…], time 14 day",14.2 g/dL
same,Ht,"[…], time 14 day",43.5%
same,Lym,"[…], time 14 day",81%
same,MCH,"[…], time 14 day",19.5 pg
same,MCHC,"[…], time 14 day",32.6%
same,MCV,"[…], time 14 day",60 fL
same,Mono,"[…], time 14 day",1.8%
same,Neu,"[…], time 14 day",15.8%
same,PT,"[…], time 14 day",13.2 s
same,Plat,"[…], time 14 day",120.7 x10_4/uL
same,RBC,"[…], time 14 day",726.6 x10_4/ul
same,Ret,"[…], time 14 day",4.1%
same,WBC,"[…], time 14 day",100.3 x10_2/uL
same,APTT,"[…], time 28 day",17.5 s
same,Bas,"[…], time 28 day",0.6%
same,Eos,"[…], time 28 day",1.2%
same,Fbg,"[…], time 28 day",287.2 mg/dL
same,Hb,"[…], time 28 day",15.6 g/dL
same,Ht,"[…], time 28 day",46.6%
same,Lym,"[…], time 28 day",80.4%
same,MCH,"[…], time 28 day",18.8 pg
same,MCHC,"[…], time 28 day",33.5%
same,MCV,"[…], time 28 day",56.1 fL
same,Mono,"[…], time 28 day",2.4%
same,Neu,"[…], time 28 day",14.8%
same,PT,"[…], time 28 day",13.5 s
same,Plat,"[…], time 28 day",102.7 x10_4/uL
same,RBC,"[…], time 28 day",831.6 x10_4/ul
same,Ret,"[…], time 28 day",2.4%
same,WBC,"[…], time 28 day",116.4 x10_2/uL
same,KIDNEY_L,"[…], time 7 day",1.2 g
same,KIDNEY_R,"[…], time 7 day",1.2 g
same,KIDNEY_TOTAL,"[…], time 7 day",2.3 g
same,KIDNEY_L,"[…], time 14 day",1.2 g
same,KIDNEY_R,"[…], time 14 day",1.2 g
same,KIDNEY_TOTAL,"[…], time 14 day",2.4 g
same,KIDNEY_L,"[…], time 28 day",1.3 g
same,KIDNEY_R,"[…], time 28 day",1.3 g
same,KIDNEY_TOTAL,"[…], time 28 day",2.7 g
same,LIVER,"[…], time 7 day",12.8 g
same,LIVER,"[…], time 14 day",13.1 g
same,LIVER,"[…], time 28 day",15.8 g
same,A/G,"[…], time 7 day",0.9
same,ALP,"[…], time 7 day",1801.2 IU/L
same,ALT,"[…], time 7 day",43.8 IU/L
same,AST,"[…], time 7 day",68 IU/L
same,BUN,"[…], time 7 day",17.6 mg/dL
same,CRE,"[…], time 7 day",0.2 mg/dL
same,Ca,"[…], time 7 day",10.9 mg/dL
same,Cl,"[…], time 7 day",104.4 meq/L
same,DBIL,"[…], time 7 day",0.01 mg/dL
same,GLC,"[…], time 7 day",197.4 mg/dL
same,IP,"[…], time 7 day",7.9 mg/dL
same,K,"[…], time 7 day",4.1 meq/L
same,LDH,"[…], time 7 day",55.6 IU/L
same,Na,"[…], time 7 day",141.8 meq/L
same,PL,"[…], time 7 day",165.2 mg/dL
same,RALB,"[…], time 7 day",2.6 g/dL
same,TBIL,"[…], time 7 day",0.056 mg/dL
same,TC,"[…], time 7 day",79.6 mg/dL
same,TG,"[…], time 7 day",138.4 mg/dL
same,TP,"[…], time 7 day",5.5 g/dL
same,gamma-GTP,"[…], time 7 day",1.2 IU/L
same,A/G,"[…], time 14 day",0.8
same,ALP,"[…], time 14 day",1429.8 IU/L
same,ALT,"[…], time 14 day",37.2 IU/L
same,AST,"[…], time 14 day",67.4 IU/L
same,BUN,"[…], time 14 day",16.8 mg/dL
same,CRE,"[…], time 14 day",0.2 mg/dL
same,Ca,"[…], time 14 day",10.7 mg/dL
same,Cl,"[…], time 14 day",104.6 meq/L
same,DBIL,"[…], time 14 day",0.014 mg/dL
same,GLC,"[…], time 14 day",196.2 mg/dL
same,IP,"[…], time 14 day",7.1 mg/dL
same,K,"[…], time 14 day",3.8 meq/L
same,LDH,"[…], time 14 day",60.8 IU/L
same,Na,"[…], time 14 day",143.2 meq/L
same,PL,"[…], time 14 day",135 mg/dL
same,RALB,"[…], time 14 day",2.6 g/dL
same,TBIL,"[…], time 14 day",0.062 mg/dL
same,TC,"[…], time 14 day",61.6 mg/dL
same,TG,"[…], time 14 day",141.6 mg/dL
same,TP,"[…], time 14 day",5.7 g/dL
same,gamma-GTP,"[…], time 14 day",1.2 IU/L
same,A/G,"[…], time 28 day",0.8
same,ALP,"[…], time 28 day",1233.8 IU/L
same,ALT,"[…], time 28 day",38 IU/L
same,AST,"[…], time 28 day",63.8 IU/L
same,BUN,"[…], time 28 day",17.8 mg/dL
same,CRE,"[…], time 28 day",0.3 mg/dL
same,Ca,"[…], time 28 day",10.7 mg/dL
same,Cl,"[…], time 28 day",105.2 meq/L
same,DBIL,"[…], time 28 day",0.012 mg/dL
same,GLC,"[…], time 28 day",188.6 mg/dL
same,IP,"[…], time 28 day",6.7 mg/dL
same,K,"[…], time 28 day",3.9 meq/L
same,LDH,"[…], time 28 day",49.8 IU/L
same,Na,"[…], time 28 day",143 meq/L
same,PL,"[…], time 28 day",151.2 mg/dL
same,RALB,"[…], time 28 day",2.7 g/dL
same,TBIL,"[…], time 28 day",0.058 mg/dL
same,TC,"[…], time 28 day",68.8 mg/dL
same,TG,"[…], time 28 day",174.6 mg/dL
same,TP,"[…], time 28 day",6.2 g/dL
same,gamma-GTP,"[…], time 28 day",1 IU/L
